Laboratory results reported in US6326395A, “Antifungal activity of dicationic molecules” (priority 1999, dated 2001).
≈ marks a conversion by molar mass, not a printed value. Where a name gives a salt, the structure may show the parent alone. Read-outs that look alike come from different tables or passages of the source.

Legend:
[1] = test system: Cryptococcus neoformans; assay: in vitro antifungal susceptibility testing (MIC, MFC; broth macrodilution), Tables 1-7; type: cell-based; conditions: for MIC: read-out: MIC80 (Minimum inhibitory concentration 80%); for MFC: read-out: MFC (Minimum fungicidal concentration)
Source text: (§1) The fungi that were employed included two reference strains, C. neoformans var. neoformans H99 and C. albicans A39 and the following clinical isolates: (1) two strains of fluconazole-resistant C. neoformans var. neoformans (135.95 and 114.96); (2) two strains of C. neoformans var. gattii (119.95 and 114.95); (3) two strains of fluconazole-resistant C. albicans (102.96 and 103.96); and (4) one strain each of Torulopsis glabrata (142.91), Candida parapsilosis (111.96), Candida krusei (132.91), C. tropicalis (110.96), Candida lusitaniae (111.92), Fusarium solani (152.89), Aspergillus fumigatus (168.95), and Aspergillus flavus (112.96). Antifungal susceptibility testing was performed using an RPMI-1640 medium (Sigma Chemical Co., St. Louis, Mo.) with glutamine, without sodium bicarbonate, and buffered at pH 7.0 with 0.165 M morpholine-propanesulfonic acid (MOPS).
(§2) In vitro susceptibility testing in the form of Minimum Inhibitory Concentration (MIC) experiments were performed using the broth macrodilution method according to the recommendations of the National Committee for Clinical Laboratory Standards (see 1995 manual). The only difference compared to the standardized procedure was the choice of drug dilutions ranging from 100 to 0.09 μg/ml. Briefly, this procedure specifies an inoculum grown at 35° C. and adjusted to a concentration of 0.5-2.5×10^3 CFU/ml with an incubation of the test performed at 35° C. and reading at 48 hours for all yeasts except for C. neoformans which is interpreted at 72 hr.
(§3) Minimum Fungicidal Concentration (MFC) experiments were adapted from a method by McGinnis (McGinnis, M. R., (1980) "Susceptibility testing and bioassay procedure", p. 431, Academic Press, Inc., New York). Briefly, 10 μl aliquots from tubes with growth inhibition were plated onto Sabouraud agar plates.
(§4) The fungi that were employed included two quality control reference strains, C. neoformans var. neoformansH99 and C. albicans A39 and the following clinical isolates: (1) four strains of C. neoformans var. neoformans (167.95; 135.95; 114.96; and 133.95) of which three were fluconazole-resistant>64 μg/ml (135.95; 114.96; and 133.95); (2) two strains of C. neoformans var. gattii (119.95 and 114.95); (3) two strains of fluconazole-resistant>64 μg/ml C. albicans (102.96 and 103.96); and (4) one strain each of C. glabrata (142.91), Candida parapsilosis (111.96), Candida krusei (132.91), C. tropicalis (110.96), Candida lusitaniae (111.92), Fusarium solani (152.89), Aspergillus fumigatus (168.95), Rhizopus arrhizus (117.89), Paecilomyces lilacinus (137.90), and Aspergillus flavus (112.96). Antifungal susceptibility testing was performed using an RPMI-1640 medium (Sigma Chemical Co., St. Louis, Mo.) with glutamine, without sodium bicarbonate, and buffered at pH 7.0 with 0.165 M morpholinepropanesulfonic acid (MOPS).
as §3, with “p.431,” for “p. 431,”

[2] = test system: Candida albicans; assay: as above; type: cell-based; conditions: for MIC: read-out: MIC80 (Minimum inhibitory concentration 80%); for MFC: read-out: MFC (Minimum fungicidal concentration)
Source text: as §1, §2, §3, §4
as §3, with “p.431,” for “p. 431,”

[3] = Tables 2-7, three or fewer colonies
[4] = Table 1, three or fewer colonies

Row | SMILES | MIC ([1]; 35° C., 72 hr) [µg/mL] | MFC [1, 3] [µg/mL] | MIC ([2]; 35° C., reading at 48 hours) [µg/mL] | MFC ([2]; three or fewer colonies) [µg/mL] | MIC ([1]; 72 h) [µg/mL] | MFC [1] [µg/mL] | MIC ([2]; 48 h) [µg/mL] | MFC [2] [µg/mL] | MFC [1, 4] [µg/mL]
1 | N=C(NC1CCCC1)c1ccc2nc(-c3ccc4oc(-c5nc6ccc(C(=N)NC7CCCC7)cc6[nH]5)cc4c3)[nH]c2c1 [Compound 56, 2,5-Bis[2-(5-N-cyclopentylamidino)benzimidazoyl]benzo[b]furan hydrochloride] | 0.78 | 0.78 | 0.78 | 0.78 |  |  |  |  | 
2 | c1cc2nc(-c3ccc(-c4nc5ccc(C6=NCCCN6)cc5[nH]4)cc3)[nH]c2cc1C1=NCCCN1 [Compound 49] | 0.78 (≈ 1.64 µM) | 1.56 (≈ 3.29 µM) | 1.56 (≈ 3.29 µM) | 3.12 (≈ 6.57 µM) |  |  |  |  | 
3 | CCCNC(=N)c1ccc(-c2ccc(-c3ccc(C(=N)NCCC)cc3)o2)cc1 [Compound 24] | 1.56 (≈ 4.02 µM) | 6.25 (≈ 16.1 µM) | 12.5 (≈ 32.2 µM) | 12.5 (≈ 32.2 µM) |  |  |  |  | 
4 | N=C(N)c1cccc(-c2ccc(-c3cccc(C(=N)N)c3)o2)c1 [Compound 38] | 3.12 (≈ 10.3 µM) | 25 (≈ 82.1 µM) | 50 (≈ 164 µM) | 100 (≈ 329 µM) |  |  |  |  | 
5 | N=C(N)c1ccc2nc(C=Cc3nc4ccc(C(=N)N)cc4[nH]3)[nH]c2c1 [Compound 32] | 1.56 (≈ 4.53 µM) | 3.12 (≈ 9.06 µM) | 6.25 (≈ 18.1 µM) | 12.5 (≈ 36.3 µM) |  |  |  |  | 
6 | CN1CCN(c2ccc3nc(-c4ccc5nc(-c6ccc(O)cc6)[nH]c5c4)[nH]c3c2)CC1 [Compound 58] |  |  |  |  | 100 (≈ 236 µM) | > 100 | 25 (≈ 58.9 µM) | 50 (≈ 118 µM) | 
7 | c1cc2nc(Cc3nc4ccc(C5=NCCN5)cc4[nH]3)[nH]c2cc1C1=NCCN1 [Compound 29] | 100 (≈ 260 µM) | > 100 | > 100 | > 100 |  |  |  |  | 
8 | N=C(N)c1ccc(OCCCCCOc2ccc(C(=N)N)cc2Cl)c(Cl)c1 [Compound 17] | 1.56 (≈ 3.81 µM) |  | 3.12 (≈ 7.62 µM) | 6.25 (≈ 15.3 µM) |  |  |  |  | 3.12 (≈ 7.62 µM)
9 | N=C(N)c1ccc(NCCCCCCNc2ccc(C(=N)N)cc2N)c(N)c1 [Compound 20] | 0.78 (≈ 2.04 µM) |  | 0.78 (≈ 2.04 µM) | 3.12 (≈ 8.16 µM) |  |  |  |  | 3.12 (≈ 8.16 µM)
10 | N=C(N)c1ccc(NCCCCCNc2ccc(C(=N)N)cc2)cc1 [Compound 18] | 0.78 (≈ 2.3 µM) |  | ≤ 0.09 | 0.39 (≈ 1.15 µM) |  |  |  |  | 1.56 (≈ 4.61 µM)
11 | COc1ccc(-c2nc3ccc(C4=NCCN4)cc3[nH]2)cc1 [Compound 59] | 50 (≈ 171 µM) | 100 (≈ 342 µM) | 25 (≈ 85.5 µM) |  |  |  |  |  | 
12 | N=C(N)c1ccc2nc(-c3ccc(-c4nc5ccc(C(=N)N)cc5[nH]4)cc3)[nH]c2c1 [Compound 47] | 0.39 (≈ 0.989 µM) | 0.39 (≈ 0.989 µM) | > 100 |  |  |  |  |  | 
13 | N=C(N)c1ccc(NCCCNc2ccc(C(=N)N)cc2)cc1 [Compound 8] | 1.56 (≈ 5.03 µM) |  | 0.19 (≈ 0.612 µM) | 0.39 (≈ 1.26 µM) |  |  |  |  | 6.25 (≈ 20.1 µM)
14 | COc1cc(C(N)=NO)ccc1OCCCOc1ccc(C(N)=NO)cc1OC [Compound 6] | > 100 |  | > 100 |  |  |  |  |  | 
15 | CN1CCN=C1c1ccc(OCCCCOc2ccc(C3=NCCN3C)cc2)cc1 [Compound 15] | > 100 |  | > 100 | > 100 |  |  |  |  | > 100
16 | N=C(N)c1ccc(OCCCCCOc2ccc(-c3nc4ccc(C(=N)N)cc4[nH]3)cc2)cc1 [Compound 66] | 0.39 (≈ 0.854 µM) | 6.25 (≈ 13.7 µM) | 0.78 (≈ 1.71 µM) | 1.56 (≈ 3.42 µM) |  |  |  |  | 
17 | c1cc(C2=NCCN2)ccc1OCCCCOc1ccc(C2=NCCN2)cc1 [Compound 14] | 6.25 (≈ 16.5 µM) |  | 0.78 (≈ 2.06 µM) | 1.56 (≈ 4.12 µM) |  |  |  |  | 12.5 (≈ 33 µM)
18 | COc1cc(C(=N)N)ccc1OCCCCOc1ccc(C(=N)N)cc1OC [Compound 12] | 50 (≈ 129 µM) |  | > 100 | > 100 |  |  |  |  | > 100
19 | COc1cc(C(=N)N)ccc1OCCCOc1ccc(C(=N)N)cc1OC [Compound 4] | 12.5 (≈ 33.6 µM) |  | 12.5 (≈ 33.6 µM) | 50 (≈ 134 µM) |  |  |  |  | 12.5 (≈ 33.6 µM)
